Measurements published in patent publication US8324214B2, “1,3-dihydro-2H-pyrrolo[3,2-bpyridin-2-one derivatives, preparation thereof and therapeutic uses thereof” (Sanofi, priority 2008, dated 2012).
Structures can show the parent of a compound that is named as a salt. Values belong to the compound of their own block, whether it stands above or below them.

How the values were obtained:
[1] = target: T1, human V1a receptors (Homo sapiens, UniProt P37288); test: Intracellular calcium measurement (FLIPR) on cells expressing V1a receptors; type: cell-based; conditions: FLIPR and platelet aggregation tests; blocking effects caused by arginine-vasopressin
T1 sequence (P37288 whole entry): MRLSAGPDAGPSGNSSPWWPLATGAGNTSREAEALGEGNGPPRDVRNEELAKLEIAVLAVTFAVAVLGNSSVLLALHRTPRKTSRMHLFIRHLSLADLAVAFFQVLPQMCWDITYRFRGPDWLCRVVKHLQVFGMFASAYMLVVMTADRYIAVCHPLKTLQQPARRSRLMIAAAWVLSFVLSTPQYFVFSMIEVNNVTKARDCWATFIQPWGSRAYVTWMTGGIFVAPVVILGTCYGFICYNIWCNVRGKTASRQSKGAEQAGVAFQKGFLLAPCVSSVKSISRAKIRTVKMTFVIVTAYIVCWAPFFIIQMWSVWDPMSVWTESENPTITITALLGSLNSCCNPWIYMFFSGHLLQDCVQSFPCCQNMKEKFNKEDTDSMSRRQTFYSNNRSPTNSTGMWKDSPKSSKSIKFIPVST
Experimental: The agonist or antagonist character of the compounds is determined in vitro in a test for measuring intracellular calcium (FLIPR) on cells expressing the human V1a receptors according to the general technique described in Sullivan et al, Methods Mol. Biol., 1999, 114, 125-133, using 1 μM Fluo-4 AM and in an AVP-induced platelet aggregation test on human PRP (platelet rich plasma) according to the methodology described in J. Clin. Invest., 1993, 92, 224.231. The compounds are preincubated for 30 minutes before the addition of arginine vasopressin in order to determine the agonist and antagonist properties of these molecules.

[2] = target: T1, human V1a receptors; test: Displacement of [3H]-AVP at V1a receptors (binding affinity); conditions: for IC50: affinity at human V1a receptors, [3H]-AVP displacement; for selectivity for the human V1a and V1b receptors for AVP (in words): versus V2 / oxytocin receptors
Experimental: The affinity of the compounds of formula (I) according to the invention for the arginine-vasopressin V1a receptors was determined in vitro using the method described by M. Thibonnier et al., J. Biol. Chem., 1994, 269, 3304-3310. This method consisted in studying in vitro the displacement of tritiated arginine-vasopressin ([3H]-AVP) at the V1a receptors present on membrane or cell preparations carrying the rat or human V1a receptors.

[3] = target: human V2 receptors (Homo sapiens, UniProt P30518); test: Affinity for vasopressin V2 receptors; type: binding; conditions: for IC50: affinity at human V2 receptors
Sequence of human V2 receptors (P30518 whole entry): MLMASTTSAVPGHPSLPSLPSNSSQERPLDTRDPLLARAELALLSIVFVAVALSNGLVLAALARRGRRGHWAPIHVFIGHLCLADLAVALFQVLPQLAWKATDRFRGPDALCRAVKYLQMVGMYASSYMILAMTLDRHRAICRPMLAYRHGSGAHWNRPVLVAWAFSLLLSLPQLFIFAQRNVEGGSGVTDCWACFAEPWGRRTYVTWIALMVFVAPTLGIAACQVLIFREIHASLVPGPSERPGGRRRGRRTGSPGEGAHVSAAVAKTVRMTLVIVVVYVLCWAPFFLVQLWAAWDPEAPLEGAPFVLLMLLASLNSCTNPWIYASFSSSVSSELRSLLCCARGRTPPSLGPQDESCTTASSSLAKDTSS
Text: Th affinity of the compounds of formula (I) according to the invention for the vasopressin V2 receptors was also studied (method described by M. Birnbaumer et al. in Nature (Lond.), 1992, 357, 333-335).

[4] = target: T2, human V1b receptors (Homo sapiens, UniProt P47901); test: Displacement of [3H]-AVP at V1b receptors (binding affinity); conditions: [3H]-AVP displacement
T2 sequence (P47901 1-424): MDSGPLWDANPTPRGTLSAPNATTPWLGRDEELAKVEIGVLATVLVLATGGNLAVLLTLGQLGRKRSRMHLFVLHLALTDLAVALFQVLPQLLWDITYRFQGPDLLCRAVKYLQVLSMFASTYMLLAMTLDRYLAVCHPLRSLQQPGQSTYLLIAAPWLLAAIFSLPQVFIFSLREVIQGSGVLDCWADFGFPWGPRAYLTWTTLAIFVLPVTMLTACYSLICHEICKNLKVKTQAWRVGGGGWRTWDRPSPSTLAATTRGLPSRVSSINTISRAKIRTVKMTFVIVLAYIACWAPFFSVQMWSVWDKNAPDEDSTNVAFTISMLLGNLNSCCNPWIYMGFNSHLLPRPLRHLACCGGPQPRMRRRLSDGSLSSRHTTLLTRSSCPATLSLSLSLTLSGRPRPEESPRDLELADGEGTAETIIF
Experimental: The affinity of the compounds of formula (I) according to the invention for the arginine-vasopressin V1b receptors was determined in vitro using the method described by Y. de Keyser et al. in Febs Letters, 1994, 356, 215-220. This method consists in studying in vitro the displacement of tritiated arginine-vasopressin ([3H]-AVP) at the V1b receptors present on cell preparations carrying the human V1b receptors.

[5] = target: T3, human uterine oxytocin receptor (Homo sapiens, UniProt P30559); test: Displacement of radioiodinated oxytocin analogue at oxytocin receptors; type: binding; conditions: for IC50: affinity at human oxytocin receptors
T3 construct: expressed in transfected cells
T3 sequence (P30559 1-389): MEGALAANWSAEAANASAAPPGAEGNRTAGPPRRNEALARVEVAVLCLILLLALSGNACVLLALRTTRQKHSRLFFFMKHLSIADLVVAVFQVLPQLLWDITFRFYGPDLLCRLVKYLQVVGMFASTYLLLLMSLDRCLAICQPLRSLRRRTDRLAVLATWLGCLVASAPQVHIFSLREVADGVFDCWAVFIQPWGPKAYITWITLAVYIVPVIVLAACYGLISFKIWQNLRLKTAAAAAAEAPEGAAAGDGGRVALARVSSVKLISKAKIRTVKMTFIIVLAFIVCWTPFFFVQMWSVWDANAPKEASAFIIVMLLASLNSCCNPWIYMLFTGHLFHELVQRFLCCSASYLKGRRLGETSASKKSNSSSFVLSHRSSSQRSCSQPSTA
Experimental: The affinity of the compounds according to the invention for the oxytocin receptors was determined in an in vitro binding test using the method described by J. Elands et al. in Eur. J. Pharmacol., 1987, 147, 197-207. This method consists in studying in vitro the displacement of a radioiodinated analogue of oxytocin at the oxytocin receptors in a membrane preparation of cells transfected with the human uterine oxytocin receptor.

Structure (SMILES): COc1ccc2c(n1)C(CCCN1CCCCC1)(c1ccccc1F)C(=O)N2S(=O)(=O)c1cccc(Cl)c1 (centres unmarked) (as salt: HCl)
melting point: 148 °C

Structure (SMILES): COc1cccc(S(=O)(=O)N2C(=O)C(CCCN3CCCCC3)(c3ccccc3F)c3nc(OC)ccc32)c1.Cl (single isomer, unassigned)
melting point: 148 °C

Structure (SMILES): COc1ccc2c(n1)C(CCCN1CCCCC1)(c1ccccc1F)C(=O)N2S(=O)(=O)c1ccc(OC(F)F)cc1 (centres unmarked) (as salt: HCl)
melting point: 133 °C

Structure (SMILES): COc1ccc2c(n1)C(CCCN1CCNCC1)(c1ccccc1F)C(=O)N2S(=O)(=O)c1ccc(OC(C)C)cc1 (centres unmarked) (as salt: HCl) [Compound No. 2, 3-(2-fluorophenyl)-1-[(4-isopropoxyphenyl)sulphonyl]-5-methoxy-3-(3-piperazin-1-ylpropyl)-1,3-dihydro-2H-pyrrolo[3,2-b]pyridin-2-one]
melting point: 123 °C

Structure (SMILES): CCN(CC)C(=O)Nc1ccc(S(=O)(=O)N2C(=O)C(NCCC3CCNCC3)(c3ccccc3Cl)c3cc(Cl)c(Cl)cc32)cc1 (stereo not drawn) [Compound α, 3-[4-[[5,6-dichloro-3-(2-chlorophenyl)-2-oxo-3-[(2-piperidin-4-ylethyl)amino]-2,3-dihydro-1H-indol-1-yl]sulphonyl]phenyl]-1,1-diethylurea]
affinity for the human V1a receptors for AVP (in words) [2]: good affinity
IC50 [2]: 23 nM
selectivity for the human V1a and V1b receptors for AVP (in words) [2]: not therefore selective
affinity for the human V2 receptors for AVP (in words) [3]: good affinity
IC50 [3]: 19 nM
IC50 [4]: 210 nM
affinity for the oxytocin receptors (in words) [5]: good affinity
IC50 [5]: 100 nM

Structure (SMILES): COc1ccc2c(n1)C(CCCN1CCNCC1)(c1ccccc1F)C(=O)N2S(=O)(=O)c1ccc(OC(C)C)cc1 (centres unmarked) [Compound No. 2, 3-(2-fluorophenyl)-1-[(4-isopropoxyphenyl)sulphonyl]-5-methoxy-3-(3-piperazin-1-ylpropyl)-1,3-dihydro-2H-pyrrolo[3,2-b]pyridin-2-one]
IC50 [2]: 0.82 nM
IC50 [3]: 120 nM
IC50 [4]: 350 nM
IC50 [5]: 71 nM

Structure (SMILES): COc1ccc2c(n1)C(CCCCN1CCN(C)CC1)(c1ccccc1F)C(=O)N2S(=O)(=O)c1ccc(OC(C)C)cc1 (centres unmarked) (as salt: salt)
melting point: 52 °C

Structure (SMILES): COc1cccc(S(=O)(=O)N2C(=O)C(CCCN3CCNCC3)(c3ccccc3F)c3nc(OC)ccc32)c1.Cl (single isomer, unassigned)
melting point: 178 °C

Structure (SMILES): CCN(CC)C(=O)Nc1ccc(S(=O)(=O)N2C(=O)C(NCCC3CCNCC3)(c3ccccc3Cl)c3cc(Cl)c(C)cc32)cc1 (stereo not drawn) [Compound β, 3-[4-[[5-chloro-3-(2-chlorophenyl)-6-methyl-2-oxo-3-[(2-piperidin-4-ylethyl)amino]-2,3-dihydro-1H-indol-1-yl]sulphonyl]phenyl]-1-diethylurea]
affinity for the human V1a receptors for AVP (in words) [2]: good affinity
IC50 [2]: 18 nM
selectivity for the human V1a and V1b receptors for AVP (in words) [2]: not therefore selective
affinity for the human V2 receptors for AVP (in words) [3]: good affinity
IC50 [3]: 13 nM
IC50 [4]: 180 nM
IC50 [5]: 69 nM

Structure (SMILES): Cc1ccc2c(n1)C(CCCN1CCNCC1)(c1ccccc1F)C(=O)N2S(=O)(=O)c1ccc(OC(C)C)cc1.Cl (single isomer, unassigned)
melting point: 150 °C

Structure (SMILES): COc1ccc2c(n1)C(CCCN1CCCCC1)(c1ccccc1F)C(=O)N2S(=O)(=O)c1ccc(OC(C)C)cc1 (centres unmarked) (as salt: HCl)
melting point: 157 °C

Structure (SMILES): COc1ccc2c(n1)C(CCCCN1CCNCC1)(c1ccccc1F)C(=O)N2S(=O)(=O)c1ccc(OC(C)C)cc1 (racemic) (as salt: HCl) [Compound No. 10, 3-(2-Fluorophenyl)-1-[(4-isopropoxyphenyl)sulphonyl]-5-methoxy-3-(4-piperazin-1-ylbutyl)-1,3-dihydro-2H-pyrrolo[3,2-b]pyridin-2-one]
melting point: 210 °C

More lines, now with the values ahead:

agonist or antagonist character [1]: V1a receptor antagonists
Structure (SMILES): COc1ccc2c(n1)C(CCCN1CCNCC1)(c1ccccc1F)C(=O)N2S(=O)(=O)c1ccc(OC(C)C)cc1 (centres unmarked) [No. 2]

melting point: 177 °C
Structure (SMILES): COc1ccc2c(n1)C(CCCN1CCNCC1)(c1ccccc1F)C(=O)N2S(=O)(=O)c1cccc(Cl)c1 (centres unmarked) (as salt: HCl) [compound 4, 1-[(3-chlorophenyl)sulphonyl]-3-(2-fluorophenyl)-5-methoxy-3-(3-piperazin-1-ylpropyl)-1,3-dihydro-2H-pyrrolo[3,2-b]pyridin-2-one]

agonist or antagonist character [1]: V1a receptor antagonists
Structure (SMILES): COc1ccc2c(n1)C(CCCN1CCNCC1)(c1ccccc1F)C(=O)N2S(=O)(=O)c1cccc(Cl)c1 (centres unmarked) [No. 4]

IC50 [2]: 7.1 nM
IC50 [3]: 210 nM
IC50 [4]: > 1000 nM
IC50 [5]: 100 nM
Structure (SMILES): COc1ccc2c(n1)C(CCCN1CCN(C)CC1)(c1ccccc1F)C(=O)N2S(=O)(=O)c1ccc(OC(C)C)cc1 (centres unmarked) [compound 11, 3-(2-fluorophenyl)-1-[(4-isopropoxyphenyl)sulphonyl]-5-methoxy-3-[3-(4-methylpiperazin-1-yl)propyl]-1,3-dihydro-2H-pyrrolo[3,2-b]pyridin-2-one]

melting point: 133 °C
Structure (SMILES): COc1ccc2c(n1)C(CCCCN1CCNCC1)(c1ccccc1F)C(=O)N2S(=O)(=O)c1ccc(OC(C)C)cc1 (centres unmarked) (as salt: HCl) [compound 14, 3-(2-fluorophenyl)-1-[(4-isopropoxyphenyl)sulphonyl]-5-methoxy-3-(4-piperazin-1-ylbutyl)-1,3-dihydro-2H-pyrrolo[3,2-b]pyridin-2-one]

melting point: 190 °C
Structure (SMILES): COc1ccc2c(n1)C(CCCN1CCN(C)CC1)(c1ccccc1F)C(=O)N2S(=O)(=O)c1ccc(OC(C)C)cc1 (centres unmarked) (as salt: HCl) [compound 11, 3-(2-fluorophenyl)-1-[(4-isopropoxyphenyl)sulphonyl]-5-methoxy-3-[3-(4-methylpiperazin-1-yl)propyl]-1,3-dihydro-2H-pyrrolo[3,2-b]pyridin-2-one]

IC50 [2]: 8.9 nM
IC50 [3]: > 1000 nM
IC50 [4]: > 1000 nM
IC50 [5]: > 1000 nM
Structure (SMILES): COc1ccc2c(n1)C(CCCN1CCNCC1)(c1ccccc1F)C(=O)N2S(=O)(=O)c1cccc(Cl)c1 (centres unmarked) [compound 4, 1-[(3-chlorophenyl)sulphonyl]-3-(2-fluorophenyl)-5-methoxy-3-(3-piperazin-1-ylpropyl)-1,3-dihydro-2H-pyrrolo[3,2-b]pyridin-2-one]
